According to US12679840B2, “Process for the preparation of (9S)-N-[3-(6-methylpyrimidin-4-yl)-3-azabicyclo[3.2.1]octan-8-yl]-9-(2,3,4-trifluorophenyl)-6,7,8,9-tetrahydro-5H-[1,2,4]triazolo[1,5-a]azepin-2-amine and its solid form” (Hoffmann-La Roche Inc., priority 2020, dated 2026):
≈ marks a conversion by molar mass, not a printed value. Where “and” joins values, the source holds several entries; their conditions need not be identical. Equal values may be shown once.

Assay: Solubility study of Form A in buffers, water and biorelevant media (suspension shaken 24 hours at 25° C., filtrate by UPLC)
Type: physicochemical
Conditions: for solubility at 24 h: thermodynamic from solid
Procedure: • pH 1.00 buffer • pH 3.00 buffer • pH 5.00 buffer • pH 7.00 buffer • pH 9.00 buffer • Water • SGF without Triton • FaSSIF • FeSSIF b. Testing Procedure
Weigh about 5 mg of compound (I) into glass vial and add 0.5 ml testing medium listed above to form suspension. Shake these suspensions at 1200 rpm for about 24 hours under 25° C.
At the end of 24 hours, pull out all the vials and filter the suspensions by 0.22 μm PVDF filters. Check the pH value and concentration of filtrate by pH meter and UPLC respectively.
The result indicates the solubility is pH dependent.

## Cc1cc(N2CC3CCC(C2)C3Nc2nc3n(n2)CCCC[C@H]3c2ccc(F)c(F)c2F)ncn1 (stereo partly drawn) [Form A, (9S)-N-[3-(6-methylpyrimidin-4-yl)-3-azabicyclo[3.2.1]octan-8-yl]-9-(2,3,4-trifluorophenyl)-6,7,8,9-tetrahydro-5H-[1,2,4]triazolo[1,5-a]azepin-2-amine]
FaSSIF, 25 °C, about 24 hours, individual replicate
  solubility at 24 h: 34 µg/mL (≈ 70.3 µM)
FaSSIF, 25 °C, about 24 hours, mean ± spread of three replicates
  solubility at 24 h: 33 µg/mL (≈ 68.2 µM)
FaSSIF, about 24 hours, individual replicate
  Solubility: 33 µg/mL (≈ 68.2 µM)
FeSSIF, 25 °C, about 24 hours, individual replicate
  solubility at 24 h: 614 µg/mL (≈ 1270 µM)
FeSSIF, 25 °C, about 24 hours, mean ± spread of three replicates
  solubility at 24 h: 618 ± 7 µg/mL (≈ 1280 µM)
FeSSIF, about 24 hours, individual replicate
  Solubility: 611 µg/mL and 628 µg/mL
SGF without Triton-X100, 25 °C, simulated gastric fluid, SGF without Triton-X100, about 24 hours, individual replicate
  solubility at 24 h: > 10000 µg/mL
SGF without Triton-X100, 25 °C, simulated gastric fluid, SGF without Triton-X100, about 24 hours, mean of three replicates
  solubility at 24 h: > 10000 µg/mL
Water, about 24 hours, individual replicate
  Solubility: 6 µg/mL (≈ 12.4 µM)
pH 1.0 buffer, 25 °C, pH 1, aqueous buffer, about 24 hours, individual replicate
  solubility at 24 h: > 10000 µg/mL
pH 1.0 buffer, 25 °C, pH 1, aqueous buffer, about 24 hours, mean of three replicates
  solubility at 24 h: > 10000 µg/mL
pH 3.0 buffer, 25 °C, pH 3, aqueous buffer, about 24 hours, individual replicate
  solubility at 24 h: 5480 µg/mL (≈ 11300 µM)
pH 3.0 buffer, 25 °C, pH 3, aqueous buffer, about 24 hours, mean ± spread of three replicates
  solubility at 24 h: 5347 ± 47 µg/mL (≈ 11100 µM)
pH 3.0 buffer, about 24 hours, individual replicate
  Solubility: 5366 µg/mL and 5468 µg/mL
pH 5.0 buffer, 25 °C, pH 5, aqueous buffer, about 24 hours, individual replicate
  solubility at 24 h: 91 µg/mL (≈ 188 µM)
pH 5.0 buffer, 25 °C, pH 5, aqueous buffer, about 24 hours, mean ± spread of three replicates
  solubility at 24 h: 101 ± 9 µg/mL (≈ 209 µM)
pH 5.0 buffer, about 24 hours, individual replicate
  Solubility: 97 µg/mL and 114 µg/mL
pH 7.0 buffer, 25 °C, pH 7, aqueous buffer, about 24 hours, individual replicate
  solubility at 24 h: 7 µg/mL (≈ 14.5 µM)
pH 7.0 buffer, 25 °C, pH 7, aqueous buffer, about 24 hours, mean ± spread of three replicates
  solubility at 24 h: 6 µg/mL (≈ 12.4 µM)
pH 7.0 buffer, about 24 hours, individual replicate
  Solubility: 6 µg/mL (≈ 12.4 µM)
pH 9.0 buffer, 25 °C, pH 9, aqueous buffer, about 24 hours, individual replicate
  solubility at 24 h: 6 µg/mL (≈ 12.4 µM)
pH 9.0 buffer, 25 °C, pH 9, aqueous buffer, about 24 hours, mean ± spread of three replicates
  solubility at 24 h: 6 µg/mL (≈ 12.4 µM)
water, 25 °C, about 24 hours, individual replicate
  solubility at 24 h: 7 µg/mL (≈ 14.5 µM)
water, 25 °C, about 24 hours, mean ± spread of three replicates
  solubility at 24 h: 6 µg/mL (≈ 12.4 µM)
